Data from patent publication US4178442A, “Novel cinnamoyles piperazines and homopiperazines, the method of preparing them and their application in therapeutics” (Delalande S. A., priority 1977, dated 1979).
Read-outs that look alike come from different tables or passages of the source.

Tests used:
in vivo = conditions: iv; for LD50: read-out: Toxicity: LD50; for mortality: read-out: Toxicity (Mortality)
Text: *LD50 or percentage of mortality which is given between brackets

anaesthetized dog = experiment: Antiangorous activity on anaesthetized dog: consumption of oxygen in the left ventricule and cardiac effort (KATZ's index); assay type: in vivo; conditions: for inhibition in vivo at 2.3 mg/kg / inhibition in vivo at 2.5 mg/kg / inhibition in vivo at 1.25 mg/kg / inhibition in vivo at 0.6 mg/kg / inhibition in vivo at 0.54 mg/kg / inhibition in vivo at 0.625 mg/kg / inhibition in vivo at 10 mg/kg: Canis lupus familiaris, iv
Method: The antiangorous activity was tested on an anaesthetized dog (sodium pentobarbital 30 mg/kg/i.v.).
The consumption of oxygen in the left ventricule was estimated by the product of the coronary venous flow and the coronary arteriovenous difference in oxygen (% volume).
The coronary venous flow was measured at the coronary venous sinus by means of a modified Morawitz cannula, introduced under radioscopic control.
The cardiac effort was estimated according to KATZ's index, by the product of the average arterial pressure and the cardiac frequency.
The cardiac frequency was estimated from the electrocardiogram recorded with D2 derivation.
It should be noted that the compounds tested were injected intravenously with slow perfusion.

[1] = 2.3 mg/kg i.v. slow perfusion, read-out: Diminution in consumption of O2
[2] = 2.3 mg/kg i.v. slow perfusion, read-out: Diminution in the cardiac effort (IK)
[3] = 2.5 mg/kg i.v. slow perfusion, read-out: Diminution in consumption of O2
[4] = 2.5 mg/kg i.v. slow perfusion, read-out: Diminution in the cardiac effort (IK)
[5] = 1.25 mg/kg i.v. slow perfusion, read-out: Diminution in consumption of O2
[6] = 1.25 mg/kg i.v. slow perfusion, read-out: Diminution in the cardiac effort (IK)
[7] = 0.625 mg/kg i.v. slow perfusion

## COc1cc(/C=C/C(=O)N2CCN(CC(O)COc3c(OC)cccc3OC)CC2)cc(OC)c1OC (stereo not shown) [760 580]
In vivo
  LD50: 294 mg/kg
Anaesthetized dog; 2.3 mg/kg i.v. slow perfusion
  Diminution in consumption of O2: in time: 30 min
  Diminution in the cardiac effort (IK): in time: 15 min
Anaesthetized dog; [1]
  inhibition in vivo at 2.3 mg/kg: 19%
Anaesthetized dog; [2]
  inhibition in vivo at 2.3 mg/kg: 26%

## COc1cc(/C=C/C(=O)N2CCN(CC(O)COc3ccccc3F)CC2)cc(OC)c1OC (stereo not shown) [760 619]
In vivo
  LD50: 158 mg/kg
Anaesthetized dog; 2.3 mg/kg i.v. slow perfusion
  Diminution in consumption of O2: in time: 30 min
  Diminution in the cardiac effort (IK): in time: 30 min
Anaesthetized dog; [1]
  inhibition in vivo at 2.3 mg/kg: 55%
Anaesthetized dog; [2]
  inhibition in vivo at 2.3 mg/kg: 44%

## COc1cc(OC)cc(OCC(O)CN2CCN(C(=O)/C=C/c3cc(OC)c(OC)c(OC)c3)CC2)c1 (stereo not shown) [760 620]
In vivo
  LD50: 285 mg/kg
Anaesthetized dog; 2.5 mg/kg i.v. slow perfusion
  Diminution in consumption of O2: in time: 30 min
  Diminution in the cardiac effort (IK): in time: 30 min
Anaesthetized dog; [3]
  inhibition in vivo at 2.5 mg/kg: 22%
Anaesthetized dog; [4]
  inhibition in vivo at 2.5 mg/kg: 10%

## COc1cc(/C=C/C(=O)N2CCCN(CC(O)COc3ccc(C(C)=O)c4c3OCCO4)CC2)cc(OC)c1OC (stereo not shown) [760 622]
In vivo; 400 mg/kg i.v.
  mortality: 40%
Anaesthetized dog; 1.25 mg/kg i.v. slow perfusion
  Diminution in consumption of O2: in time: 30 min
  Diminution in the cardiac effort (IK): in time: 15 min
Anaesthetized dog; [5]
  inhibition in vivo at 1.25 mg/kg: 20%
Anaesthetized dog; [6]
  inhibition in vivo at 1.25 mg/kg: 17%

## CCOC(=O)c1ccc(OCC(O)CN2CCN(C(=O)/C=C/c3cc(OC)c(OC)c(OC)c3)CC2)c2c1OCCO2 (stereo not shown) [760 700]
In vivo; 367 mg/kg i.v.
  mortality: 0%
Anaesthetized dog; 0.6 mg/kg i.v. slow perfusion
  Diminution in consumption of O2: in time: 45 min
  Diminution in the cardiac effort (IK): in time: 60 min
Anaesthetized dog; 0.6 mg/kg i.v. slow perfusion, read-out: Diminution in consumption of O2
  inhibition in vivo at 0.6 mg/kg: 59%
Anaesthetized dog; 0.6 mg/kg i.v. slow perfusion, read-out: Diminution in the cardiac effort (IK)
  inhibition in vivo at 0.6 mg/kg: 47%

## COc1cc(/C=C/C(=O)N2CCN(CC(O)COc3ccc(CO)c4c3OCCO4)CC2)cc(OC)c1OC (stereo not shown) [760 705]
In vivo; 400 mg/kg i.v.
  mortality: 20%
Anaesthetized dog; 1.25 mg/kg i.v. slow perfusion
  Diminution in consumption of O2: in time: 38 min
  Diminution in the cardiac effort (IK): in time: 75 min
Anaesthetized dog; [5]
  inhibition in vivo at 1.25 mg/kg: 51%
Anaesthetized dog; [6]
  inhibition in vivo at 1.25 mg/kg: 26%

## CNC(=O)c1ccc(OCC(O)CN2CCN(C(=O)/C=C/c3cc(OC)c(OC)c(OC)c3)CC2)c2c1OCCO2 (stereo not shown) [760 710]
In vivo; 345 mg/kg i.v.
  mortality: 70%
Anaesthetized dog; 0.54 mg/kg i.v. slow perfusion
  Diminution in consumption of O2: in time: 60 min
  Diminution in the cardiac effort (IK): in time: 30 min
Anaesthetized dog; 0.54 mg/kg i.v. slow perfusion, read-out: Diminution in consumption of O2
  inhibition in vivo at 0.54 mg/kg: 64%
Anaesthetized dog; 0.54 mg/kg i.v. slow perfusion, read-out: Diminution in the cardiac effort (IK)
  inhibition in vivo at 0.54 mg/kg: 36%

## COc1cc(/C=C/C(=O)N2CCN(CC(O)COc3ccc(CC#N)c4c3OCCO4)CC2)cc(OC)c1OC (stereo not shown) [770 188]
In vivo
  LD50: 219 mg/kg

## COc1cc(/C=C/C(=O)N2CCN(CC(O)CSc3cccc4c3OCCO4)CC2)cc(OC)c1OC (stereo not shown) [780 389]
Anaesthetized dog; 2.5 mg/kg i.v. slow perfusion
  Diminution in consumption of O2: in time: 15 min
  Diminution in the cardiac effort (IK): in time: 30 min
Anaesthetized dog; [3]
  inhibition in vivo at 2.5 mg/kg: 32%
Anaesthetized dog; [4]
  inhibition in vivo at 2.5 mg/kg: 15%

## COc1cc(/C=C/C(=O)N2CCN(CC(O)COc3ccc(C(C)=O)cc3Cl)CC2)cc(OC)c1OC (stereo not shown) [780 401]
Anaesthetized dog; 2.5 mg/kg i.v. slow perfusion
  Diminution in consumption of O2: in time: 30 min
Anaesthetized dog; [3]
  inhibition in vivo at 2.5 mg/kg: 64%
Anaesthetized dog; [4]
  inhibition in vivo at 2.5 mg/kg: 6%

## COc1cc(/C=C/C(=O)N2CCN(CC(O)COc3ccc(C(C)=O)cc3OC)CC2)cc(OC)c1 (stereo not shown) [780 404]
Anaesthetized dog; 2.5 mg/kg i.v. slow perfusion
  Diminution in consumption of O2: in time: 15 min
  Diminution in the cardiac effort (IK): in time: 30 min
Anaesthetized dog; [3]
  inhibition in vivo at 2.5 mg/kg: 69%
Anaesthetized dog; [4]
  inhibition in vivo at 2.5 mg/kg: 44%

## CNC(=O)Nc1ccc(OCC(O)CN2CCN(C(=O)/C=C/c3cc(OC)c(OC)c(OC)c3)CC2)c2c1OCCCO2 (stereo not shown) [780 456]
Anaesthetized dog; [7]
  Diminution in consumption of O2: in time: 15 min
  Diminution in the cardiac effort (IK): in time: 30 min
Anaesthetized dog; 0.625 mg/kg i.v. slow perfusion, read-out: Diminution in consumption of O2
  inhibition in vivo at 0.625 mg/kg: 13%
Anaesthetized dog; 0.625 mg/kg i.v. slow perfusion, read-out: Diminution in the cardiac effort (IK)
  inhibition in vivo at 0.625 mg/kg: 32%

## CCCCc1oc2ccccc2c1C(=O)c1cc(I)c(OCCN(CC)CC)c(I)c1 [AMIODARONE, reference compound]
Anaesthetized dog; 10 mg/kg i.v. slow perfusion
  Diminution in consumption of O2: in time: 15 min
  Diminution in the cardiac effort (IK): in time: 15 min
Anaesthetized dog; 10 mg/kg i.v. slow perfusion, read-out: Diminution in consumption of O2
  inhibition in vivo at 10 mg/kg: 11%
Anaesthetized dog; 10 mg/kg i.v. slow perfusion, read-out: Diminution in the cardiac effort (IK)
  inhibition in vivo at 10 mg/kg: 22%
